# Patent US8614342B2, “Process for preparing epoxycarboxylic esters” (BASF SE, priority 2012, dated 2013)
# Settings: 20° C.
smiles,measurement,value
"COC(=O)C1CO1 (stereo not shown) [MEP, Methyl Epoxy Propionate]",solubility of MEP in water,43 g/10 g of H2O
